The values that follow come from ChEMBL document CHEMBL1201862, “PubChem BioAssay data set” (2004).

Some test systems named below: M14; CAKI-1; SF-295; CCRF-CEM; 786-0; SNB-75; COLO 205; A498; RXF 393; NCI/ADR-RES; HCT-116; PC-3; HT-29; SK-MEL-5; NCI-H226; EKVX; HOP-62; SF-539; SK-MEL-2; SF-268.
Holding throughout (test): growth of human tumour cells (NCI), 48 h

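Step 1: Grow cells in 96-well plates. Step 2: Expose to compound for 48 hours at 5 concentrations. Step 3: Interpolate endpoints linearly; if unreached, use highest concentration. At the GI50, growth is halved.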 Active and inactive are the calls of the source. No stated cut-off is given here; in the data, active = GI50 up to about 1.1 µM and inactive = higher. Where only a bound is given, the exact number is not on record here.

On to `COC(=O)CN1CCN(c2cccc3c2CCCC3)CC1`, for which the GI50 was 19.4 µM (inactive) in the experiment on M14; > 100 µM (inactive) in the experiment with CAKI-1; > 100 µM (inactive) with SF-295; 47.9 µM (inactive) with CCRF-CEM; 36.2 µM (inactive) in the experiment with 786-0; 43.6 µM (inactive) in the experiment with SNB-75. For the same molecule, the GI50 was 29.2 µM (inactive) in the experiment with COLO 205; > 100 µM (inactive) in the experiment with A498; > 100 µM (inactive) in the experiment with RXF 393; 24.5 µM (inactive) with NCI/ADR-RES; 32.4 µM (inactive) in the experiment with HCT-116; 64.6 µM (inactive) in the experiment on PC-3. The GI50 in the experiment on HT-29 was 18.2 µM (inactive); in the experiment with SK-MEL-5, 23.2 µM (inactive); in the experiment on NCI-H226, 23.4 µM (inactive); in the experiment on EKVX, 66.2 µM (inactive); in the experiment with HOP-62, > 100 µM (inactive); in the experiment with SF-539 it was > 100 µM (inactive). Further, the GI50 in the experiment with SK-MEL-2 was > 100 µM (inactive).

Consider `O=[N+]([O-])/C(Cl)=C(/C(Cl)=C(Cl)Cl)N1CCOCC1`, for which the GI50 in the experiment with M14 was 2.36 µM (inactive); in the experiment with CAKI-1, 4.34 µM (inactive); in the experiment with SF-295, 11.5 µM (inactive); with CCRF-CEM, 1.8 µM (inactive); in the experiment on 786-0 it was 2.92 µM (inactive); in the experiment with SNB-75, 4.03 µM (inactive). In addition, the GI50 in the experiment on COLO 205 is 2.54 µM (inactive); in the experiment on A498, 3.04 µM (inactive); in the experiment with RXF 393, 2.61 µM (inactive); in the experiment with NCI/ADR-RES, 3.29 µM (inactive); in the experiment with HCT-116, 2.44 µM (inactive); in the experiment with PC-3, 6.01 µM (inactive). In addition, the GI50 in the experiment on SF-268 was 6.41 µM (inactive); in the experiment with HT-29, 3.4 µM (inactive); in the experiment with SK-MEL-5, 1.65 µM (inactive); in the experiment with NCI-H226, 16.4 µM (inactive); in the experiment on EKVX, 6.53 µM (inactive); in the experiment with SF-539, 3.12 µM (inactive). Besides, in the experiment on SK-MEL-2, the GI50 was 2.12 µM (inactive).

As to `COc1ccc(NC(=S)Nc2cc(C)ccn2)cc1`, the GI50 in the experiment with CAKI-1, with CCRF-CEM, with 786-0, with SNB-75, with COLO 205 and with A498 was > 100 µM (inactive) throughout. Moreover, the GI50 was > 100 µM (inactive) with RXF 393; 28.6 µM (inactive) in the experiment with NCI/ADR-RES; > 100 µM (inactive) in the experiment on HCT-116; > 100 µM (inactive) with PC-3; > 100 µM (inactive) with SF-268; > 100 µM (inactive) in the experiment on HT-29. For the same molecule, the GI50 in the experiment on SK-MEL-5, with NCI-H226, with EKVX, with HOP-62, in the experiment on SF-539 and in the experiment on SK-MEL-2 was > 100 µM (inactive) in each case.

Take `O=C(N/N=C/c1ccc(Cl)cc1)c1cc(I)cc(I)c1O`: the GI50 with M14 was > 100 µM (inactive); in the experiment on CAKI-1 it was > 100 µM (inactive); in the experiment on SF-295, > 100 µM (inactive); with CCRF-CEM, > 100 µM (inactive); with 786-0 it was > 100 µM (inactive); in the experiment on SNB-75, 94.2 µM (inactive). Besides, the GI50 in the experiment on COLO 205 was > 100 µM (inactive); with A498 it was 33.3 µM (inactive); with RXF 393, > 100 µM (inactive); in the experiment with NCI/ADR-RES it was > 100 µM (inactive); in the experiment on HCT-116, > 100 µM (inactive); with PC-3, > 100 µM (inactive). Moreover, the GI50 in the experiment with HT-29, in the experiment with SK-MEL-5, in the experiment on NCI-H226, with EKVX, in the experiment on HOP-62 and with SF-539 was > 100 µM (inactive) in each case. Further, the GI50 with SK-MEL-2 is > 100 µM (inactive).

Turning to `O=S(=O)(O)c1ccc(O)c2ncc(Cl)cc12`, the GI50 in the experiment on M14, in the experiment on CAKI-1, in the experiment with SF-295, in the experiment with CCRF-CEM, in the experiment on 786-0 and in the experiment on SNB-75 was > 100 µM (inactive) each time. The GI50 in the experiment with COLO 205, in the experiment on A498, with RXF 393, in the experiment with NCI/ADR-RES, in the experiment on HCT-116 and in the experiment on PC-3 was > 100 µM (inactive) each time. The GI50 in the experiment on HT-29, in the experiment with SK-MEL-5, in the experiment on NCI-H226, with EKVX, in the experiment with HOP-62 and in the experiment with SF-539 was > 100 µM (inactive) in each case. For the same molecule, the GI50 in the experiment on SK-MEL-2 was > 100 µM (inactive).

For `N=C(N)NCCCC(NC(=O)OCCCCCCn1ccc(N)nc1=O)C(=O)O` (stereo not given), the GI50 in the experiment with M14, in the experiment with CAKI-1, in the experiment on SF-295, in the experiment with CCRF-CEM, with 786-0 and with SNB-75 was > 100 µM (inactive) throughout. Also, the GI50 is > 100 µM (inactive) with COLO 205; > 100 µM (inactive) in the experiment on A498; > 100 µM (inactive) in the experiment on RXF 393; 4.75 µM (inactive) in the experiment with NCI/ADR-RES; > 100 µM (inactive) in the experiment with HCT-116; > 100 µM (inactive) in the experiment on PC-3. The GI50 in the experiment with SF-268 is > 100 µM (inactive); in the experiment with HT-29 it was > 100 µM (inactive); in the experiment on NCI-H226 it was 0.418 µM (active); in the experiment with EKVX, > 100 µM (inactive); in the experiment with HOP-62, > 100 µM (inactive); in the experiment with SF-539, > 100 µM (inactive). In addition, the GI50 with SK-MEL-2 was > 100 µM (inactive).

Regarding `Cc1nc(-c2ccc([N+](=O)[O-])cc2)cn2c1nc1ccccc12`, the GI50 in the experiment on M14 was 70.3 µM (inactive); in the experiment with CAKI-1, > 100 µM (inactive); with SF-295 it was 76.9 µM (inactive); in the experiment with CCRF-CEM it was > 100 µM (inactive); in the experiment with 786-0 it was 71 µM (inactive); in the experiment with SNB-75 it was 24.6 µM (inactive). For the same molecule, the GI50 with COLO 205 is > 100 µM (inactive); in the experiment with A498, > 100 µM (inactive); in the experiment with RXF 393, 41.6 µM (inactive); in the experiment on NCI/ADR-RES, > 100 µM (inactive); in the experiment with HCT-116 it was > 100 µM (inactive); in the experiment with PC-3, > 100 µM (inactive). Moreover, the GI50 in the experiment on SF-268 was > 100 µM (inactive); in the experiment on HT-29, > 100 µM (inactive); in the experiment with NCI-H226, > 100 µM (inactive); with EKVX it was > 100 µM (inactive); with HOP-62, 36.5 µM (inactive); with SF-539, > 100 µM (inactive). Further, the GI50 with SK-MEL-2 is 31.1 µM (inactive).

As to `CC(C)CCn1nc(N)c2nc3ccccc3nc21`, the GI50 in the experiment with M14 was > 100 µM (inactive); in the experiment with CAKI-1 it was 64.4 µM (inactive); in the experiment on SF-295, > 100 µM (inactive); in the experiment with CCRF-CEM it was 46.2 µM (inactive); in the experiment with 786-0 it was > 100 µM (inactive); with SNB-75 it was > 100 µM (inactive). Further, the GI50 in the experiment with A498 is > 100 µM (inactive); with RXF 393, > 100 µM (inactive); in the experiment with NCI/ADR-RES, > 100 µM (inactive); with HCT-116, 56 µM (inactive); in the experiment with PC-3, > 100 µM (inactive); with SF-268 it was > 100 µM (inactive). The GI50 was 64.7 µM (inactive) in the experiment on HT-29; 61.8 µM (inactive) in the experiment with NCI-H226; > 100 µM (inactive) in the experiment on EKVX; > 100 µM (inactive) in the experiment with HOP-62; > 100 µM (inactive) in the experiment on SF-539; > 100 µM (inactive) in the experiment with SK-MEL-2.
